Experimental data taken from US9611248B2, “Chemical compounds” (Syngenta Participations AG, priority 2013, dated 2017).

system: a variety of test species; assay: Post-emergence herbicidal activity; type: in vivo; set-up: key to ABUTH (Abutilon theophrasti) damage score / AMARE (Amaranthus retroflexus) damage score / ALOMY (Alopecurus myosuroides) damage score / ECHCG (Echinochloa crus-galli) damage score / ZEAMX (Zea mays) damage score / SOLNI (Solanum nigrum) damage score: 0 = no damage to plant, 5 = total damage to plant; details: rate 1000 g/ha, evaluated after 13 days
Procedure, shortened: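 Damage on a 0–5 scale (5 = plant killed) was rated 13 days after treatment. Test species had been sown in standard soil and raised 8 days under glasshouse conditions of 24/16 °C, 14 h light, 65% humidity. They were then sprayed with aqueous solution from an acetone/water 50:50 formulation containing 0.5% Tween 20.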

In order of rising “ABUTH (Abutilon theophrasti) damage score” value:
1. COC1=C(C)C(=O)N(c2ccc(Cl)nn2)C1O (stereo not drawn) [BD3]  1
2. CC1=C(Cl)C(O)N(c2cc(C(F)(F)F)c(C(=O)OC(C)(C)C)cn2)C1=O (stereo not drawn) [AA45]  2
3. COC1=C(C)C(=O)N(c2cc(C(F)(F)F)c(-c3ccc(C)c([N+](=O)[O-])c3)cn2)C1O (stereo not drawn) [AD127]  2
4. COC1=C(C)C(=O)N(c2cc(C)c(-c3ccc(F)cc3C)cn2)C1O (stereo not drawn) [AD65]  4
5. COC1=C(C)C(=O)N(c2cc(C(C)(C)C)c(-c3cccc(C#N)c3)nn2)C1O (stereo not drawn) [BD14]  4
6. COC1=C(C)C(=O)N(c2cc(C)c(-c3ccc(C#N)cc3)cn2)C1O (stereo not drawn) [AD111]  5
7. COC1=C(C)C(=O)N(c2cc(C(F)(F)F)c(I)cn2)C1O (stereo not drawn) [AD51]  5
8. COC1=C(C)C(=O)N(c2cc(C(F)(F)F)c(Oc3ccccc3)cn2)C1O (stereo not drawn) [AD88]  5
9. COC1=C(C)C(=O)N(c2cc(C(C)(C)C)c(N3CC(F)(F)C3)nn2)C1O (stereo not drawn) [BD12]  5
10. COC1=C(C)C(=O)N(c2cc(C(F)(F)Cl)ccn2)C1O (stereo not drawn) [AD67]  5
11. COC1=C(C)C(=O)N(c2cc(C(F)(F)F)c(C(=O)NC(C)C)cn2)C1O (stereo not drawn) [AD53]  5
12. COC1=C(C)C(=O)N(c2nccc(C(F)(F)F)c2C#N)C1O (stereo not drawn) [AD5]  5
13. COC1=C(C)C(=O)N(c2cc(C(C)(C)F)c(Cl)nn2)C1O (stereo not drawn) [BD8]  5
14. COC1=C(C)C(=O)N(c2cc(C)c(-c3ccccc3[N+](=O)[O-])cn2)C1O (stereo not drawn) [AD120]  5
15. COC1=C(C)C(=O)N(c2cc(C(F)(F)F)c(-c3ccccc3[N+](=O)[O-])cn2)C1O (stereo not drawn) [AD129]  5

In order of falling “ALOMY (Alopecurus myosuroides) damage score” value:
1. COC1=C(C)C(=O)N(c2cc(C(F)(F)F)c(C(=O)NC(C)C)cn2)C1O (stereo not drawn) [AD53]  5
2. COC1=C(C)C(=O)N(c2cc(C(F)(F)F)c(I)cn2)C1O (stereo not drawn) [AD51]  4
3. COC1=C(C)C(=O)N(c2cc(C(C)(C)C)c(N3CC(F)(F)C3)nn2)C1O (stereo not drawn) [BD12]  4
4. COC1=C(C)C(=O)N(c2cc(C(F)(F)Cl)ccn2)C1O (stereo not drawn) [AD67]  4
5. COC1=C(C)C(=O)N(c2cc(C(C)(C)C)c(-c3cccc(C#N)c3)nn2)C1O (stereo not drawn) [BD14]  4
6. COC1=C(C)C(=O)N(c2nccc(C(F)(F)F)c2C#N)C1O (stereo not drawn) [AD5]  4
7. COC1=C(C)C(=O)N(c2cc(C(C)(C)F)c(Cl)nn2)C1O (stereo not drawn) [BD8]  4
8. COC1=C(C)C(=O)N(c2cc(C(F)(F)F)c(Oc3ccccc3)cn2)C1O (stereo not drawn) [AD88]  3
9. COC1=C(C)C(=O)N(c2cc(C)c(-c3ccc(C#N)cc3)cn2)C1O (stereo not drawn) [AD111]  2
10. COC1=C(C)C(=O)N(c2cc(C)c(-c3ccc(F)cc3C)cn2)C1O (stereo not drawn) [AD65]  2
11. CC1=C(Cl)C(O)N(c2cc(C(F)(F)F)c(C(=O)OC(C)(C)C)cn2)C1=O (stereo not drawn) [AA45]  2
12. COC1=C(C)C(=O)N(c2cc(C)c(-c3ccccc3[N+](=O)[O-])cn2)C1O (stereo not drawn) [AD120]  2
13. COC1=C(C)C(=O)N(c2cc(C(F)(F)F)c(-c3ccccc3[N+](=O)[O-])cn2)C1O (stereo not drawn) [AD129]  2
14. COC1=C(C)C(=O)N(c2ccc(Cl)nn2)C1O (stereo not drawn) [BD3]  1
15. COC1=C(C)C(=O)N(c2cc(C(F)(F)F)c(-c3ccc(C)c([N+](=O)[O-])c3)cn2)C1O (stereo not drawn) [AD127]  1

In order of rising “AMARE (Amaranthus retroflexus) damage score” value:
1. COC1=C(C)C(=O)N(c2ccc(Cl)nn2)C1O (stereo not drawn) [BD3]  2
2. CC1=C(Cl)C(O)N(c2cc(C(F)(F)F)c(C(=O)OC(C)(C)C)cn2)C1=O (stereo not drawn) [AA45]  3
3. COC1=C(C)C(=O)N(c2cc(C)c(-c3ccc(C#N)cc3)cn2)C1O (stereo not drawn) [AD111]  5
4. COC1=C(C)C(=O)N(c2cc(C(F)(F)F)c(I)cn2)C1O (stereo not drawn) [AD51]  5
5. COC1=C(C)C(=O)N(c2cc(C)c(-c3ccc(F)cc3C)cn2)C1O (stereo not drawn) [AD65]  5
6. COC1=C(C)C(=O)N(c2cc(C(F)(F)F)c(Oc3ccccc3)cn2)C1O (stereo not drawn) [AD88]  5
7. COC1=C(C)C(=O)N(c2cc(C(C)(C)C)c(N3CC(F)(F)C3)nn2)C1O (stereo not drawn) [BD12]  5
8. COC1=C(C)C(=O)N(c2cc(C(F)(F)Cl)ccn2)C1O (stereo not drawn) [AD67]  5
9. COC1=C(C)C(=O)N(c2cc(C(F)(F)F)c(C(=O)NC(C)C)cn2)C1O (stereo not drawn) [AD53]  5
10. COC1=C(C)C(=O)N(c2cc(C(F)(F)F)c(-c3ccc(C)c([N+](=O)[O-])c3)cn2)C1O (stereo not drawn) [AD127]  5
11. COC1=C(C)C(=O)N(c2cc(C(C)(C)C)c(-c3cccc(C#N)c3)nn2)C1O (stereo not drawn) [BD14]  5
12. COC1=C(C)C(=O)N(c2nccc(C(F)(F)F)c2C#N)C1O (stereo not drawn) [AD5]  5
13. COC1=C(C)C(=O)N(c2cc(C(C)(C)F)c(Cl)nn2)C1O (stereo not drawn) [BD8]  5
14. COC1=C(C)C(=O)N(c2cc(C)c(-c3ccccc3[N+](=O)[O-])cn2)C1O (stereo not drawn) [AD120]  5
15. COC1=C(C)C(=O)N(c2cc(C(F)(F)F)c(-c3ccccc3[N+](=O)[O-])cn2)C1O (stereo not drawn) [AD129]  5

In order of rising “ECHCG (Echinochloa crus-galli) damage score” value:
1. COC1=C(C)C(=O)N(c2cc(C)c(-c3ccc(C#N)cc3)cn2)C1O (stereo not drawn) [AD111]  1
2. CC1=C(Cl)C(O)N(c2cc(C(F)(F)F)c(C(=O)OC(C)(C)C)cn2)C1=O (stereo not drawn) [AA45]  1
3. COC1=C(C)C(=O)N(c2ccc(Cl)nn2)C1O (stereo not drawn) [BD3]  1
4. COC1=C(C)C(=O)N(c2cc(C(C)(C)C)c(-c3cccc(C#N)c3)nn2)C1O (stereo not drawn) [BD14]  3
5. COC1=C(C)C(=O)N(c2cc(C)c(-c3ccc(F)cc3C)cn2)C1O (stereo not drawn) [AD65]  4
6. COC1=C(C)C(=O)N(c2cc(C(F)(F)F)c(Oc3ccccc3)cn2)C1O (stereo not drawn) [AD88]  4
7. COC1=C(C)C(=O)N(c2cc(C(F)(F)F)c(-c3ccc(C)c([N+](=O)[O-])c3)cn2)C1O (stereo not drawn) [AD127]  4
8. COC1=C(C)C(=O)N(c2nccc(C(F)(F)F)c2C#N)C1O (stereo not drawn) [AD5]  4
9. COC1=C(C)C(=O)N(c2cc(C)c(-c3ccccc3[N+](=O)[O-])cn2)C1O (stereo not drawn) [AD120]  4
10. COC1=C(C)C(=O)N(c2cc(C(F)(F)F)c(-c3ccccc3[N+](=O)[O-])cn2)C1O (stereo not drawn) [AD129]  4
11. COC1=C(C)C(=O)N(c2cc(C(F)(F)F)c(I)cn2)C1O (stereo not drawn) [AD51]  5
12. COC1=C(C)C(=O)N(c2cc(C(C)(C)C)c(N3CC(F)(F)C3)nn2)C1O (stereo not drawn) [BD12]  5
13. COC1=C(C)C(=O)N(c2cc(C(F)(F)Cl)ccn2)C1O (stereo not drawn) [AD67]  5
14. COC1=C(C)C(=O)N(c2cc(C(F)(F)F)c(C(=O)NC(C)C)cn2)C1O (stereo not drawn) [AD53]  5
15. COC1=C(C)C(=O)N(c2cc(C(C)(C)F)c(Cl)nn2)C1O (stereo not drawn) [BD8]  5

In order of rising “SETFA (Setaria faberi) damage score” value:
1. CC1=C(Cl)C(O)N(c2cc(C(F)(F)F)c(C(=O)OC(C)(C)C)cn2)C1=O (stereo not drawn) [AA45]  2
2. COC1=C(C)C(=O)N(c2ccc(Cl)nn2)C1O (stereo not drawn) [BD3]  2
3. COC1=C(C)C(=O)N(c2cc(C)c(-c3ccc(C#N)cc3)cn2)C1O (stereo not drawn) [AD111]  4
4. COC1=C(C)C(=O)N(c2cc(C(F)(F)F)c(-c3ccc(C)c([N+](=O)[O-])c3)cn2)C1O (stereo not drawn) [AD127]  4
5. COC1=C(C)C(=O)N(c2cc(C(C)(C)C)c(-c3cccc(C#N)c3)nn2)C1O (stereo not drawn) [BD14]  4
6. COC1=C(C)C(=O)N(c2nccc(C(F)(F)F)c2C#N)C1O (stereo not drawn) [AD5]  4
7. COC1=C(C)C(=O)N(c2cc(C)c(-c3ccccc3[N+](=O)[O-])cn2)C1O (stereo not drawn) [AD120]  4
8. COC1=C(C)C(=O)N(c2cc(C(F)(F)F)c(-c3ccccc3[N+](=O)[O-])cn2)C1O (stereo not drawn) [AD129]  4
9. COC1=C(C)C(=O)N(c2cc(C(F)(F)F)c(I)cn2)C1O (stereo not drawn) [AD51]  5
10. COC1=C(C)C(=O)N(c2cc(C)c(-c3ccc(F)cc3C)cn2)C1O (stereo not drawn) [AD65]  5
11. COC1=C(C)C(=O)N(c2cc(C(F)(F)F)c(Oc3ccccc3)cn2)C1O (stereo not drawn) [AD88]  5
12. COC1=C(C)C(=O)N(c2cc(C(C)(C)C)c(N3CC(F)(F)C3)nn2)C1O (stereo not drawn) [BD12]  5
13. COC1=C(C)C(=O)N(c2cc(C(F)(F)Cl)ccn2)C1O (stereo not drawn) [AD67]  5
14. COC1=C(C)C(=O)N(c2cc(C(F)(F)F)c(C(=O)NC(C)C)cn2)C1O (stereo not drawn) [AD53]  5
15. COC1=C(C)C(=O)N(c2cc(C(C)(C)F)c(Cl)nn2)C1O (stereo not drawn) [BD8]  5

In order of falling “ZEAMX (Zea mays) damage score” value:
1. COC1=C(C)C(=O)N(c2cc(C(F)(F)F)c(C(=O)NC(C)C)cn2)C1O (stereo not drawn) [AD53]  5
2. COC1=C(C)C(=O)N(c2cc(C(F)(F)F)c(-c3ccc(C)c([N+](=O)[O-])c3)cn2)C1O (stereo not drawn) [AD127]  4
3. COC1=C(C)C(=O)N(c2cc(C(C)(C)C)c(N3CC(F)(F)C3)nn2)C1O (stereo not drawn) [BD12]  2
4. COC1=C(C)C(=O)N(c2nccc(C(F)(F)F)c2C#N)C1O (stereo not drawn) [AD5]  2
5. COC1=C(C)C(=O)N(c2cc(C(C)(C)F)c(Cl)nn2)C1O (stereo not drawn) [BD8]  2
6. COC1=C(C)C(=O)N(c2cc(C(F)(F)F)c(-c3ccccc3[N+](=O)[O-])cn2)C1O (stereo not drawn) [AD129]  2
7. COC1=C(C)C(=O)N(c2cc(C)c(-c3ccc(C#N)cc3)cn2)C1O (stereo not drawn) [AD111]  1
8. COC1=C(C)C(=O)N(c2cc(C(F)(F)F)c(I)cn2)C1O (stereo not drawn) [AD51]  1
9. COC1=C(C)C(=O)N(c2cc(C)c(-c3ccc(F)cc3C)cn2)C1O (stereo not drawn) [AD65]  1
10. COC1=C(C)C(=O)N(c2cc(C(F)(F)F)c(Oc3ccccc3)cn2)C1O (stereo not drawn) [AD88]  1
11. CC1=C(Cl)C(O)N(c2cc(C(F)(F)F)c(C(=O)OC(C)(C)C)cn2)C1=O (stereo not drawn) [AA45]  1
12. COC1=C(C)C(=O)N(c2cc(C(F)(F)Cl)ccn2)C1O (stereo not drawn) [AD67]  1
13. COC1=C(C)C(=O)N(c2cc(C(C)(C)C)c(-c3cccc(C#N)c3)nn2)C1O (stereo not drawn) [BD14]  1
14. COC1=C(C)C(=O)N(c2ccc(Cl)nn2)C1O (stereo not drawn) [BD3]  0
15. COC1=C(C)C(=O)N(c2cc(C)c(-c3ccccc3[N+](=O)[O-])cn2)C1O (stereo not drawn) [AD120]  0
